Measurements as given in US4622244A, “Process for preparation of microcapsules” (The Washington University, priority 1984, dated 1986).
Values after ≈ are worked out from the molar mass of the structure shown. Like-named read-outs stand apart in the source and are kept apart here.

What was measured:
[1] = Mouse tail-flick test, morphine challenge; type: in vivo
Method: Microcapsules (177-295 microns in size) so prepared were evaluated by the mouse tail-flick test procedure. Mice (groups of 6) were the test animals. The morphine challenge dose was 10 mg./kg. mouse; test animal response was measured 20 min. after morphine injection. As will be seen, the microcapsules caused more than 50% antagonism 28 days after injection both in the tests in which peanut oil was used as the suspending medium and in the tests where peanut oil plus aluminum monostearate was used as the suspending medium.
*All injections (1 cc/100 g mouse) given through 18 gauge needle; Morphin
challenge dose: 10 mg/kg mouse; Capsule size: 177-295μ; Active content
of capsules initially: 67 wt. %.
Similar studies were run with microcapsules (105 to 177 microns in size) of naltrexone free base (NFB) prepared in the same manner as the naltrexone pamoate microcapsules.
challenge dose: 10 mg/kg mouse; Capsule size: 105-177μ; Active content

[2] = In vitro release/dissolution by end-over-end tumbling in phosphate buffer at 37° C.; type: physicochemical
[3] = Solubility of cyclazocine in solvents (equilibration, solids content after solvent evaporation); type: physicochemical
Method: For example, taking cyclazocine as the solid, injectable drug material, Table I summarizes the solubility data obtained for this drug in a number of solvents.
After equilibration (20-30 min), one ml. of solution was transferred to a tared weighing dish and the solids content determined by solvent evaporation.
In particular, the aromatic solvents have little tendency to dissolve it at room temperature.

**Q.** For `O=C1CC[C@@]2(O)[C@H]3Cc4ccc(O)c5c4[C@@]2(CCN3CC2CC2)[C@H]1O5` [NFB], which “% Antagonism” value ([1]; 7 days, 40 mg unencapsulated NFB/kg mouse, peanut oil) is on record?
**A.** 80.0%

**Q.** And the “% Antagonism” value ([1]; 7 days, 40 mg unencapsulated NFB/kg mouse, peanut oil + 2 wt. % AIMS)?
**A.** 54.1%

**Q.** And the “% Antagonism” value ([1]; 10 days, 40 mg unencapsulated NFB/kg mouse, peanut oil)?
**A.** 39.7%

**Q.** And the “% Antagonism” value ([1]; 10 days, 40 mg unencapsulated NFB/kg mouse, peanut oil + 2 wt. % AIMS)?
**A.** 69.5%

**Q.** What about the “% Antagonism” value ([1]; 14 days, 40 mg unencapsulated NFB/kg mouse, peanut oil) of the same compound?
**A.** 21.8%

**Q.** What about the “% Antagonism” value ([1]; 14 days, 40 mg unencapsulated NFB/kg mouse, peanut oil + 2 wt. % AIMS) of the same compound?
**A.** 48.0%

**Q.** What about the “% Antagonism” value ([1]; 21 days, 40 mg unencapsulated NFB/kg mouse, peanut oil) of the same compound?
**A.** 8.1%

**Q.** And the “% Antagonism” value ([1]; 21 days, 40 mg unencapsulated NFB/kg mouse, peanut oil + 2 wt. % AIMS)?
**A.** 15.2%

**Q.** Which “Complete dissolution time of unencapsulated drug” value ([2]; buffer pH 7.4) does the source give for `C[C@H]1[C@H]2Cc3ccc(O)cc3[C@]1(C)CCN2CC1CC1` [cyclazocine, 3-(cyclopropylmethyl)-1,2,3,4,-5,6-hexahydro-6,11-dimethyl-2,6-methano-3-benzazocin-8-ol] here?
**A.** ≤ 15 min

**Q.** And the “Complete dissolution time of unencapsulated drug” value ([2]; same buffer, pH 7.0)?
**A.** ≤ 15 min

**Q.** What about the solubility ([3]; 25 acetone/75 ethanol (v/v), organic solvent or mixture, 25 acetone/75 ethanol (V/V), 25° C., read-out: Solubility) of the same compound?
**A.** 4540 µg/mL (≈ 16.7 mM)

**Q.** And the solubility ([3]; 50 acetone/50 ethanol (v/v), organic solvent or mixture, 50 acetone/50 ethanol (V/V), 25° C., read-out: Solubility)?
**A.** 4700 µg/mL (≈ 17.3 mM)

**Q.** And the solubility ([3]; 75 acetone/25 ethanol (v/v), organic solvent or mixture, 75 acetone/25 ethanol (V/V), 25° C., read-out: Solubility)?
**A.** 4740 µg/mL (≈ 17.5 mM)

**Q.** What about the solubility ([3]; acetone, organic solvent or mixture, acetone, 25° C., read-out: Solubility) of the same compound?
**A.** 5100 µg/mL (≈ 18.8 mM)

**Q.** And the solubility ([3]; benzene, organic solvent or mixture, benzene, 25° C., read-out: Solubility)?
**A.** 1400 µg/mL (≈ 5.16 mM)

**Q.** And the solubility ([3]; benzene, organic solvent or mixture, benzene, 50° C., read-out: Solubility)?
**A.** 2400 µg/mL (≈ 8.84 mM)

**Q.** What about the solubility ([3]; chloroform, organic solvent or mixture, chloroform, 25° C., read-out: Solubility) of the same compound?
**A.** 7600 µg/mL (≈ 28 mM)

**Q.** And the solubility ([3]; cyclohexane, 80° C.)?
**A.** Insoluble

**Q.** What about the solubility ([3]; decahydronaphthalene, organic solvent or mixture, decahydronaphthalene, 25° C., read-out: Solubility) of the same compound?
**A.** 1700 µg/mL (≈ 6.26 mM)

**Q.** What about the solubility ([3]; decahydronaphthalene, organic solvent or mixture, decahydronaphthalene, 130° C., read-out: Solubility) of the same compound?
**A.** 3400 µg/mL (≈ 12.5 mM)

**Q.** And the solubility ([3]; ethanol, organic solvent or mixture, ethanol, 25° C., read-out: Solubility)?
**A.** 6640 µg/mL (≈ 24.5 mM)

**Q.** And the solubility ([3]; ethanol, organic solvent or mixture, ethanol, 73° C., read-out: Solubility)?
**A.** 52000 µg/mL (≈ 192 mM)

**Q.** What about the solubility ([3]; ethyl acetate, organic solvent or mixture, ethyl acetate, 4° C., read-out: Solubility) of the same compound?
**A.** 2600 µg/mL (≈ 9.58 mM)

**Q.** What about the solubility ([3]; ethyl acetate, organic solvent or mixture, ethyl acetate, 25° C., read-out: Solubility) of the same compound?
**A.** 6300 µg/mL (≈ 23.2 mM)

**Q.** What about the solubility ([3]; ethyl acetate, organic solvent or mixture, ethyl acetate, 77° C., read-out: Solubility) of the same compound?
**A.** 45000 µg/mL (≈ 166 mM)

**Q.** And the solubility ([3]; isopropanol, organic solvent or mixture, isopropanol, 25° C., read-out: Solubility)?
**A.** 26800 µg/mL (≈ 98.7 mM)

**Q.** What about the solubility ([3]; isopropanol, organic solvent or mixture, isopropanol, 80° C., read-out: Solubility) of the same compound?
**A.** 26800 µg/mL (≈ 98.7 mM)

**Q.** And the solubility ([3]; methanol, organic solvent or mixture, methanol, 25° C., read-out: Solubility)?
**A.** 18400 µg/mL (≈ 67.8 mM)

**Q.** What about the solubility ([3]; methanol, organic solvent or mixture, methanol, 63° C., read-out: Solubility) of the same compound?
**A.** 33200 µg/mL (≈ 122 mM)

**Q.** And the solubility ([3]; methyl ethyl ketone, organic solvent or mixture, methyl ethyl ketone, 4° C., read-out: Solubility)?
**A.** 9100 µg/mL (≈ 33.5 mM)

**Q.** What about the solubility ([3]; methyl ethyl ketone, organic solvent or mixture, methyl ethyl ketone, 25° C., read-out: Solubility) of the same compound?
**A.** 16000 µg/mL (≈ 59 mM)

**Q.** What about the solubility ([3]; methyl ethyl ketone, organic solvent or mixture, methyl ethyl ketone, 79° C., read-out: Solubility) of the same compound?
**A.** 59800 µg/mL (≈ 220 mM)

**Q.** And the solubility ([3]; n-butanol, organic solvent or mixture, n-butanol, 4° C., read-out: Solubility)?
**A.** 4500 µg/mL (≈ 16.6 mM)

**Q.** What about the solubility ([3]; n-butanol, organic solvent or mixture, n-butanol, 25° C., read-out: Solubility) of the same compound?
**A.** 15000 µg/mL (≈ 55.3 mM)

**Q.** And the solubility ([3]; n-butanol, organic solvent or mixture, n-butanol, 117° C., read-out: Solubility)?
**A.** 215000 µg/mL (≈ 792 mM)

**Q.** What about the “Solubility (in words)” value ([3]; range of solvents, room temperature) of the same compound?
**A.** relatively low solubility

**Q.** And the solubility ([3]; toluene, organic solvent or mixture, toluene, 25° C., read-out: Solubility)?
**A.** 1000 µg/mL (≈ 3.68 mM)

**Q.** What about the solubility ([3]; toluene, organic solvent or mixture, toluene, 35° C., read-out: Solubility) of the same compound?
**A.** 1500 µg/mL (≈ 5.53 mM)

**Q.** What about the solubility ([3]; toluene, organic solvent or mixture, toluene, 50° C., read-out: Solubility) of the same compound?
**A.** 4000 µg/mL (≈ 14.7 mM)

**Q.** And the solubility ([3]; toluene, organic solvent or mixture, toluene, 100° C., read-out: Solubility)?
**A.** 15000 µg/mL (≈ 55.3 mM)

**Q.** And the solubility ([3]; xylene, organic solvent or mixture, xylene, 25° C., read-out: Solubility)?
**A.** 1200 µg/mL (≈ 4.42 mM)

**Q.** And the solubility ([3]; xylene, organic solvent or mixture, xylene, 50° C., read-out: Solubility)?
**A.** 1800 µg/mL (≈ 6.63 mM)

**Q.** What about the solubility ([3]; xylene, organic solvent or mixture, xylene, 90° C., read-out: Solubility) of the same compound?
**A.** 17500 µg/mL (≈ 64.5 mM)

**Q.** Which “% Antagonism” value ([1]; 7 days, 40 mg unencapsulated NP/kg mouse, peanut oil) does the source give for `O=C1CC[C@@]2(O)[C@H]3Cc4ccc(O)c5c4[C@@]2(CCN3CC2CC2)[C@H]1O5` [NP] here?
**A.** 66.1%

**Q.** What about the “% Antagonism” value ([1]; 7 days, 40 mg unencapsulated NP/kg mouse, peanut oil + 2 wt. % AIMS) of the same compound?
**A.** 88.3%

**Q.** What about the “% Antagonism” value ([1]; 14 days, 40 mg unencapsulated NP/kg mouse, peanut oil) of the same compound?
**A.** 59.1%

**Q.** And the “% Antagonism” value ([1]; 14 days, 40 mg unencapsulated NP/kg mouse, peanut oil + 2 wt. % AIMS)?
**A.** 52.9%

**Q.** And the “% Antagonism” value ([1]; 21 days, 40 mg unencapsulated NP/kg mouse, peanut oil)?
**A.** 12.9%

**Q.** And the “% Antagonism” value ([1]; 21 days, 40 mg unencapsulated NP/kg mouse, peanut oil + 2 wt. % AIMS)?
**A.** 11.2%

**Q.** And the “% Antagonism” value ([1]; 28 days, 40 mg unencapsulated NP/kg mouse, peanut oil)?
**A.** 13.9%

**Q.** What about the “% Antagonism” value ([1]; 28 days, 40 mg unencapsulated NP/kg mouse, peanut oil + 2 wt. % AIMS) of the same compound?
**A.** 18.4%
